The values below come from ChEMBL document CHEMBL3988442, “University of Dundee, Small-Polar-MMV Screening Library” (2021).

Structures are written as SMILES.

This experiment has as its system Schistosoma mansoni. The experiment is described as follows: High throughput screening of compounds against Schistosoma mansoni motility. Set-up: dose or concentration left out as unconfirmed. The experiment is classed as functional.

`Cc1ccc(C(=O)O)cc1S(=O)(=O)Nc1nn(-c2ccccc2)cc1C`: the “Percent Effect” value is reported as -27.39%.

Consider `CSCC(CCO)NC(=O)Nc1cc(C)ccc1C` (stereo unspecified), for which the “Percent Effect” value is -11.31%.

Regarding `COc1cc(CN2CCN(c3cccc(OC)c3)C(=O)C2)cc(OC)c1`, the “Percent Effect” value is reported as -47.17%.

For the molecule `Cc1noc(C)c1CN1C(=O)[C@H]2CC[C@@H]1CN(Cc1cccnc1N)C2`, the “Percent Effect” value was -25.95%.

Take `CCOc1ccc(CN(C)C(=O)NC(C)c2nncn2C)cc1` (stereo unspecified): the “Percent Effect” value was -46.5%.

`CC(CNC(=O)Nc1ccc(N(C)C)nc1)Cn1cccn1` (stereo unspecified): the “Percent Effect” value is listed as -28.69%.

Regarding `CCCNC(=O)Cn1nc(C(C)C)c2cnn(C(C)(C)C)c2c1=O`, the “Percent Effect” value is -27.62%.

With `Cc1ccc(F)c(C(=O)N2CCN(S(C)(=O)=O)[C@@H](C)C2)c1`, the “Percent Effect” value was -35.69%.

For the molecule `O=C(c1ccccn1)N1CCCC(c2nccn2CC2CCC2)C1` (stereo unspecified), the “Percent Effect” value is listed as -9.087%.

On to `COc1ccccc1S(=O)(=O)N1CCC(Oc2cccnn2)CC1`, for which the “Percent Effect” value is on record as -19.77%.

As for `c1cc2c(cc1C1CCCN1Cc1nnnn1C1CC1)OCCO2` (stereo unspecified), the “Percent Effect” value is 5.096%.

Regarding `O=C(CCc1cc2n(n1)CCCN(C(=O)c1cccnc1)C2)NC1CC1`, the “Percent Effect” value was 5.877%.

Take `Cc1c[nH]c(CN(C)c2nc(C3CCCC3)nc3c2cnn3C)n1`: the “Percent Effect” value was -22.17%.

As to `COc1ccccc1OCC(=O)Nc1ncccc1OC(F)F`, the “Percent Effect” value turned out to be 13.82%.

As to `CCc1ccc(C(=O)N2CCCC(n3cncn3)C2)o1` (stereo unspecified), the “Percent Effect” value is -35.91%.

Consider `COCCCC1CCCN(C(=O)CCc2cc(O)no2)C1` (stereo unspecified), for which the “Percent Effect” value was 4.573%.

As to `COCCN(Cc1ccc(F)cc1Cl)C(=O)c1cccc[n+]1[O-]`, the “Percent Effect” value is -17.57%.

As to `O=C(NCCCn1cccn1)C1(c2ccc(Br)cc2)CC1`, the “Percent Effect” value is given as 14.19%.

`Cn1cc(-c2csc(CN3CCOCC3)n2)cn1`: the “Percent Effect” value is on record as 14.63%.

For `CN(C)C(=O)N1CCN(C(=O)C(c2ccccc2F)N(C)C)CC1` (stereo unspecified), the “Percent Effect” value is listed as -1.181%.

Turning to `CC1CN(C)c2ccccc2CN1C(=O)CSc1ccncc1` (stereo unspecified), the “Percent Effect” value was 7.617%.

In the case of `Cc1n[nH]c(C)c1C1CCCN1C(=O)NCC(=O)NC(C)(C)C` (stereo unspecified), the “Percent Effect” value is on record as -7.96%.

As to `CC(C)(C)C(=O)NCCC(=O)NC(C)(C)c1ccc2c(c1)OCCO2`, the “Percent Effect” value is listed as -18.95%.

For `c1ccc(-c2noc3c2CN(CC2CC2)CC3)cc1`, the “Percent Effect” value was -116.8%.

Turning to `CN(C(=O)Cn1nc(-c2ccc(F)cc2)oc1=O)C1CCS(=O)(=O)C1` (stereo unspecified), the “Percent Effect” value is -46.67%.

For the molecule `O=C(CCc1ccsc1)N1CCC(Cc2ccc(CO)cc2)C1` (stereo unspecified), the “Percent Effect” value stood at 6.677%.

Turning to `CCn1c(N)nc2cc(C(=O)NCc3ccccc3Cl)cnc21`, the “Percent Effect” value is given as -40.17%.

With `CC(C)C(=O)N1CCN(C(=O)c2cscn2)[C@H]2CS(=O)(=O)C[C@H]21`, the “Percent Effect” value was -16.72%.

As for `CCN1CC(C(=O)NCc2ccnc(-n3ccnc3C)c2)CC1=O` (stereo unspecified), the “Percent Effect” value is recorded as -29.1%.

On to `CCCc1nnsc1C(=O)NCC1CCN(S(C)(=O)=O)CC1`, for which the “Percent Effect” value is -25.98%.

Turning to `O=S(=O)(c1cccnc1)N1CCN(CCn2ccnc2)CC1`, the “Percent Effect” value was -24.98%.

For `Cc1cc(F)ccc1CNCCn1cccn1`, the “Percent Effect” value is on record as -28.39%.

With `CCc1ncncc1C(=O)NCCN1CCC(C)CC1`, the “Percent Effect” value was -31.56%.

As to `CNC(=O)COc1ccc(CNCc2ccc(F)cc2F)cc1`, the “Percent Effect” value was -31.94%.

For `CCc1nc(CN2CCCC(N(C)Cc3cnn(C)c3)C2)no1` (stereo unspecified), the “Percent Effect” value is listed as -19.11%.

`CCCNCC1(O)CCCN(Cc2cccc(C)c2)C1=O` (stereo unspecified): the “Percent Effect” value is on record as -43.91%.

As for `CC(C)(C)C(=O)NCCn1ccc(-c2ccncc2)n1`, the “Percent Effect” value is -55.77%.

In the case of `Cc1cccc(CS(=O)(=O)NCC(O)Cc2ccccc2)c1` (stereo unspecified), the “Percent Effect” value came out at 8.547%.

For the molecule `Cc1cn(-c2ccccc2)nc1NS(=O)(=O)c1cc(C(=O)O)cs1`, the “Percent Effect” value is on record as -15.39%.

`COc1cccc(S(=O)(=O)NC2CNC(=O)C2)c1` (stereo unspecified): the “Percent Effect” value is -3.901%.

Turning to `Cc1ccc(C(=O)NC(C)CN2CCCC2=O)c(=O)[nH]1` (stereo unspecified), the “Percent Effect” value was -45.23%.

In the case of `Cc1nc(C2CCCN(C(=O)c3sccc3C3CC3)C2)no1` (stereo unspecified), the “Percent Effect” value is -33.52%.

Regarding `O=C(NCCN1CCC(c2cccs2)CC1)Nc1cccs1`, the “Percent Effect” value is recorded as -30.63%.

Regarding `CN(C)Cc1nnc(C2CCN(c3nccc(N)n3)CC2)n1C1CC1`, the “Percent Effect” value was -22.89%.

For `O=C1CC(c2cccs2)c2snc(C(=O)O)c2N1` (stereo unspecified), the “Percent Effect” value amounted to 18.04%.

With `Cc1cnc2c(c1NCc1ccncc1)c(=O)n(C)c(=O)n2C`, the “Percent Effect” value is given as -90.48%.

As to `COc1cccc(CNc2c(C)cnc3c2c(=O)n(C)c(=O)n3C)c1`, the “Percent Effect” value is given as 5.662%.

With `O=C(Cc1cccs1)NC1CCN(c2cccc(F)c2)CC1`, the “Percent Effect” value is listed as -37.43%.

With `CCN1CCN(S(=O)(=O)c2ncn(C)c2Cl)CC1`, the “Percent Effect” value is listed as -72.02%.

With `O=S(=O)(Cc1ccccc1)NCc1ccco1`, the “Percent Effect” value is reported as -25.54%.

Regarding `CCc1nnc2n1CC(CNCc1ccncc1)CC2` (stereo unspecified), the “Percent Effect” value is recorded as -67.25%.

With `CN(CCN1CCCCC1)C(=O)c1cc(CN2CCOCC2)on1`, the “Percent Effect” value is listed as -21.55%.

As for `CCOCCN1CCN(Cc2nnc(C3CC3)o2)CC1CC` (stereo unspecified), the “Percent Effect” value is -4.218%.

Take `Cl.Cl.OC(CN1CCN(Cc2ccc(F)c(F)c2)CC1)C1CC1` (stereo unspecified): the “Percent Effect” value is -57.04%.

Turning to `COc1cccc(N2CCN(Cc3ccc(NC(C)=O)cc3)CC2=O)c1`, the “Percent Effect” value was -11.44%.

As to `Cc1c(Br)cccc1C(=O)NC(C)CN1CCCC1=O` (stereo unspecified), the “Percent Effect” value is -4.935%.

For `Cc1cnccc1N1CCCN(C(=O)CCCc2cn[nH]c2)CC1`, the “Percent Effect” value was -14.12%.

`CCc1cc(N[C@H]2CC[C@H](O)CC2)n2nc(C)c(C)c2n1`: the “Percent Effect” value turned out to be 12.6%.

Consider `CN(C)C(CNC(=O)c1cccc(-n2cnnn2)c1)c1ccccc1Cl` (stereo unspecified), for which the “Percent Effect” value was found to be 53.46%.

In the case of `CC[C@@]1(O)CCN(C(=O)c2ccc(SC)cc2)C[C@H]1O`, the “Percent Effect” value came to 20.95%.

Consider `Cc1cccc(CNCc2c(C)nn(C)c2N2CCOCC2)n1`, for which the “Percent Effect” value was -105.3%.

For `CCc1ccccc1C(=O)N1CCN(S(C)(=O)=O)[C@@H](C)C1`, the “Percent Effect” value is -27.03%.

For `Cc1n[nH]c(C)c1C1CCCN1C(=O)NCCSC(C)(C)C` (stereo unspecified), the “Percent Effect” value is -28.72%.

With `Cc1nn(C)c(N2CCOCC2)c1CNC(C)c1cccnc1` (stereo unspecified), the “Percent Effect” value is given as -13.95%.

Consider `O=C(CN1CCCC1Cn1cncn1)NC(C1CC1)C1CC1` (stereo unspecified), for which the “Percent Effect” value is -24.22%.

For the molecule `OC1CCN(Cc2cc3c(cc2Br)OCCO3)CC1`, the “Percent Effect” value is 8.478%.

`Cc1cc(N2CCN3CCCCC3C2)n2nc(C)c(C)c2n1` (stereo unspecified): the “Percent Effect” value is recorded as -7.768%.

Turning to `NC(=O)CN1CCCN(C(=O)c2ccn(-c3cccc(F)c3)n2)CC1`, the “Percent Effect” value is on record as -9.604%.

Regarding `Cc1cc(C)n(CC2CCCN2C(=O)c2ccc3c(c2)nnn3C)n1` (stereo unspecified), the “Percent Effect” value is on record as -59.08%.

Turning to `CCc1nc(C2CCCN2CC(=O)Nc2c(C)nn(C)c2C)no1` (stereo unspecified), the “Percent Effect” value is listed as -35.66%.

Take `Cc1cc(C(=O)N2CCC(c3nccn3Cc3ccncc3)CC2)no1`: the “Percent Effect” value is -48.3%.
